Reference: PubChem BioAssay (NCI)
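1) Cells in 96-well plates. 2) Compound, 48 h, 5 concentrations. 3) Linear interpolation between surrounding doses. 4) Unreached endpoint = highest concentration. TGI: concentration producing complete growth inhibition.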

Key:
Assay in all cases: NCI-60 cell line screen, 48 h
[1] = tested on: SNB-75 CNS
[2] = tested on: K-562 leukemia
[3] = tested on: SF-268 CNS
[4] = tested on: IGROV1 ovarian
[5] = tested on: RPMI-8226 leukemia
[6] = tested on: HL-60(TB) leukemia
[7] = tested on: SK-MEL-5 melanoma
[8] = tested on: KM20L2 colon
[9] = tested on: OVCAR-8 ovarian
[10] = tested on: U251 CNS
[11] = tested on: SR leukemia
[12] = tested on: OVCAR-3 ovarian
[13] = tested on: A549 NSCLC
[14] = tested on: LOX IMVI melanoma
[15] = tested on: ACHN renal
[16] = tested on: COLO 205 colon
[17] = tested on: MALME-3M melanoma
[18] = tested on: SK-MEL-2 melanoma
[19] = tested on: MDA-N
[20] = tested on: MDA-MB-435

Structure (SMILES)	TGI [1]	TGI [2]	TGI [3]	TGI [4]	TGI [5]	TGI [6]	TGI [7]	TGI [8]	TGI [9]	TGI [10]	TGI [11]	TGI [12]	TGI [13]	TGI [14]	TGI [15]	TGI [16]	TGI [17]	TGI [18]	TGI [19]	TGI [20]
CCCCCCn1c(SCC)c2ccccc2c1-c1nc(F)nc(F)n1	> 100 µM	> 100 µM	> 100 µM	> 100 µM	> 100 µM	> 100 µM	> 100 µM	> 100 µM	> 100 µM	> 100 µM	> 100 µM	> 100 µM	> 100 µM	> 100 µM	> 100 µM	> 100 µM	> 100 µM	> 100 µM	–	–
CN(C(=O)C12C3C4C1C1C2C3C41I)C(C)(C)C (configuration not stated)	> 100 µM	> 100 µM	> 100 µM	> 100 µM	> 100 µM	> 92.7 µM	> 100 µM	> 100 µM	> 100 µM	> 100 µM	> 31.6 µM	> 100 µM	> 100 µM	> 100 µM	> 100 µM	> 100 µM	> 100 µM	> 100 µM	–	–
Cc1c2ccncc2cc2c1sc1ccncc12	15.4 µM	21.5 µM	14.4 µM	39.3 µM	7.49 µM	6.79 µM	5.78 µM	25.7 µM	23.7 µM	14.7 µM	1.67 µM	27.7 µM	5.3 µM	25.6 µM	4.22 µM	12.1 µM	15 µM	17.8 µM	14.3 µM	–
NC(=O)OCC(COc1ccc(Cl)cc1)OC(=O)c1ccccc1Cl (configuration not stated)	> 100 µM	39.4 µM	79.1 µM	59.9 µM	51.6 µM	41.5 µM	33.1 µM	34.9 µM	54.3 µM	27.6 µM	51.7 µM	40.7 µM	75.8 µM	27.9 µM	95.1 µM	32.7 µM	48.6 µM	34.1 µM	–	–
CC#COP(=O)(OCC)OCC	–	> 100 µM	> 100 µM	> 100 µM	> 100 µM	60.6 µM	> 100 µM	> 100 µM	> 100 µM	> 100 µM	> 100 µM	> 100 µM	> 100 µM	> 100 µM	> 100 µM	> 100 µM	> 100 µM	> 100 µM	–	–
COc1cc(NC(C)=O)c2[nH]c3c(C)cc(NC(C)=O)c(C)c3c2c1	> 100 µM	> 100 µM	> 100 µM	> 100 µM	> 100 µM	> 100 µM	> 100 µM	> 100 µM	> 100 µM	> 100 µM	–	> 100 µM	> 100 µM	–	> 100 µM	> 100 µM	–	> 100 µM	–	–
COc1ccc(/C=C(\Cl)c2ccc(OC)c(OC)c2)cc1OC	> 100 µM	> 100 µM	> 100 µM	> 100 µM	> 100 µM	> 100 µM	> 100 µM	> 100 µM	> 100 µM	> 100 µM	> 100 µM	> 100 µM	> 100 µM	> 100 µM	> 100 µM	> 100 µM	> 100 µM	> 100 µM	> 100 µM	> 100 µM
COC(=O)c1[nH]c(=S)[nH]c(=O)c1-c1ccc(Cl)cc1	> 50 µM	> 50 µM	> 50 µM	> 50 µM	> 50 µM	> 50 µM	> 50 µM	> 50 µM	> 50 µM	> 50 µM	> 50 µM	> 50 µM	> 50 µM	> 50 µM	> 50 µM	> 50 µM	> 50 µM	> 50 µM	–	–
C/C(CN1C(=O)c2ccccc2C1=O)=N\NS(=O)(=O)c1ccc(Br)cc1	> 100 µM	> 100 µM	> 100 µM	> 100 µM	> 100 µM	> 100 µM	> 100 µM	> 100 µM	> 100 µM	> 100 µM	–	> 100 µM	> 100 µM	> 100 µM	> 100 µM	> 100 µM	> 100 µM	> 100 µM	–	–
COc1ccc(Br)c2c1CC(C(=O)O)CC2 (configuration not stated)	> 100 µM	> 100 µM	> 100 µM	> 100 µM	> 100 µM	> 100 µM	> 100 µM	> 100 µM	> 100 µM	> 100 µM	> 100 µM	> 100 µM	> 100 µM	> 100 µM	> 100 µM	> 100 µM	> 100 µM	> 100 µM	> 100 µM	> 100 µM
Cn1c(O)c(C(=O)Nc2cccs2)c(=O)[nH]c1=S	31.3 µM	> 100 µM	41.9 µM	52 µM	49.1 µM	> 100 µM	26.9 µM	34.1 µM	66.2 µM	48.3 µM	–	49.8 µM	45 µM	31 µM	43.7 µM	30.2 µM	29.5 µM	30.4 µM	–	–
NC(=S)NNC(=O)/C(=C/c1ccc(/C=C(\NC(=O)c2ccccc2)C(=O)NNC(N)=S)cc1)NC(=O)c1ccccc1	85 µM	> 31.6 µM	> 100 µM	> 100 µM	> 70.2 µM	> 31.6 µM	> 100 µM	> 100 µM	> 100 µM	> 100 µM	> 63 µM	> 100 µM	> 100 µM	> 100 µM	> 100 µM	> 100 µM	> 100 µM	> 100 µM	–	–
O=S(=O)([O-])[O-].[Fe+2].c1ccc(/C(=N\Nc2ccccn2)c2ccccn2)cc1	14.7 µM	8.44 µM	19.3 µM	5.46 µM	12.4 µM	4.62 µM	4.43 µM	12.4 µM	10.8 µM	4.66 µM	–	2.67 µM	8.82 µM	11.8 µM	5.35 µM	2.15 µM	10.1 µM	5.74 µM	–	–
